Experiments:
primary tumor = conditions: cited from earlier work
[1] = cited from earlier work
B16-GLF cells = assay: IV metastasis model of B16 melanoma; type: in vivo, mice; conditions: systemic 1V270 day -1
Protocol: FIGS. 27A-27D. […] Therapeutic effects of 1V270 were evaluated in IV metastatic models of 816 melanoma (A, B) and LLC (C, D). BG-albino mice (n=B-10) (A, C), C57BL6 wild type mice (n=15-20) (B and D), were i.p. administered with 200 μg 1V270 or vehicle!iNext day, 5×10^5 B16-GLF cells (A) or 1×10^5 LLC-GLF cells (c) were i.v. administered (A,C). The tumor signals were quantified by IVIS at day 14. […] (B,D) The mice were monitored daily and were euthanized upon reaching the criteria according to UCSD IACUC guidelines. The survival data were analyzed by Log-Rank test. Data were pooled from 2 independent experiments showing similar results and were analyzed by Living Image® software. […] Statistical differences were analyzed by the Mann-Whitney U test comparing 1V270 treatment groups against the vehicle. **P<0.05.
GFP and luciferase (GLF)-expressing tumor cells (2×10^4 of 4T1-GLF, 5×10^5 of B16-GLF, and […] of LLC-GLF) were i.v. injected into BALB/c mice for 4T1 models, BG-albino or wild-type C57BU6 for B16 melanoma or LLC models). […] Image data were acquired by 1 Ss exposure using the IVIS Spectrum and analyzed using the Living Image software, version 4.5.2 (Perkin Elmer, Waltham, Mass.). We confirmed that the tumor signals in the lungs at day 10 correlated with the number of lung metastasis determined on day 21, as well as the overall survival (Supplemental figures 10). […]

4T1 cells = assay: Secondary (orthotopic) 4T1 challenge after 1V270 therapy; type: in vivo, BALB/c mice
Text: FIGS. 24A-24G. Tumor infiltrating T cells in 1V270 treated mice show high clonalities and increased frequency of intra- and inter-individual common clones (A) Experimental protocols of the secondary challenge studies. Two groups of BALB/c mice (n=5/group) were i.p, treated with 1V270. One cohort of mice was i.v. injected with 4T1-GLF cells (2×10^4) on day 0 and tumor growth in the lungs was monitored by IVIS on day 20. […] Native BALB/c mice served as controls. 4T1 cells were orthotopically inoculated on day 21. (B) Tumor growth was measured with a caliper and calculated using the formula: volume (mm3)=(width)2×length/2. (C) TILs s were isolated from the secondarily challenged tumor on day 39 and stained for CD8^+ T cells (CD3^+CD8^+) and PD-1. The numbers of tumor-infiltrating cos• T cells were expressed per tumor volume (mm^3). Data are representative of 2 independent experiments showing similar results. Results were analyzed by the Mann-Whitney U test comparing the 1V270 treatment groups against the vehicle treated group. **P<0.01. (D·G) TCR repertoire of CD8^+ T cells from TILs s and splenocytes were examined. (D) The clonality index (1-normalized Shannon index) of CD8^+ T cells infiltrating to the left side of the secondarily challenged tumor was plotted against tumor volume in the tumor exposed mice. Correlation between the clonality index and the tumor volume was evaluated by Pearson's method (R^2=0.97, p<0.05).
FIGS. 26A-26D. Intranasally administered 1V270 inhibits pulmonary colonization in experimental metastasis models (A) Protocol for testing the therapeutic efficacy of i.n. treatment with 1V270 in IV metastasis model. BALB/c mice (n=6-8/group) were i.n. administered with 1V270 (20 or 200 μg) or vehicle on days −3, −1, 3, 7, and 10. 4T1 cells were v. injected on day 0. (B) The numbers of lung nodules were counted on Day 21. *P<0.05 calculated by Kruskal-Wallis test with Dunn's post hoc test. (C) Intranasal 1V270 therapy attenuated the growth of secondarily challenged tumors. BALB/c mice (n=S) were i.n. treated with 200 μg 1V270 on days −3, −1, 3, 7 and 10. 4T1 cells were injected on day 0. On day 21, the surviving mice were orthotopically inoculated with 4T1 cells and tumor growth was monitored. The mice treated with 1V270 without i.v. tumor cell injection served as controls. (D) TILs were isolated from the secondarily challenged tumor, and the numbers of CD8^+ T cells and PD-1 expressing CD8^+ T cells were analyzed by flow cytometric assay. Data were analyzed by the Mann-Whitney U test comparing two groups. *P<0.05. Data are representative of 2 independent experiments showing similar results.
In the spontaneous metastasis model, othotopically implanted tumor cells spontaneously form lung metastases within three weeks after implantation. 5×10^5 4T1 cells were inoculated in both sides of the 4th mammary pads of female BALB/c mice. Tumor length and width were recorded, and tumor volumes were calculated using the formula: volume (mm^3)=(width)^2×length/2. On day 28, mice were euthanized and the lungs were stained with intratracheally injected India ink and destained in Fekete's solution to count tumor nodules. In the experimental metastasis model, 2×10^4 4T1 cells were i.v. injected. On day 21, mice were euthanized and tumor nodules in lungs were counted as described above. In the secondary challenge experiment, 1V270 treated-mice without tumor signals in the lungs on day 21 of the experimental metastasis protocol were included. 5×10^5 4T1 cells were inoculated in both sides of the 4th mammary p ads. Tumor length and width were recorded, and tumor volumes were calculated similar with
To validate that 1V270 therapy induced tumor-specific adaptive immune responses, we monitored the growth of secondarily challenged tumors following prior 1V270 treatment. The mice treated with 1V270 using the IV metastasis protocol were orthotopically re-challenged with 4T1 cells on day 21 (FIG. 24A). […]

CD8+ T cells = assay: TCR repertoire analysis of CD8+ T cells from TILs and spleens; type: in vivo, BALB/c mice
[2] = intranasal 1V270, tumor-exposed vs no tumor exposure or naive

**Q.** What does the source list for CCCCCCCCC=CCCCCCCCC(=O)OCC(COP(=O)(O)OCCNC(=O)c1ccc(Cn2c(=O)[nH]c3c(N)nc(OCCOC)nc32)cc1)OC(=O)CCCCCCCC=CCCCCCCCC (stereo not shown) [1V270]?
**A.** primary tumor growth (primary tumor; intratumoral administration): inhibits primary tumor growth; systemic cytokine induction (primary tumor; local (intratumoral) treatment): without causing systemic cytokine induction; systemic cytokine release after intranasal administration [1]: without inducing systemic cytokine release; lung metastasis (IVIS tumor signal) (B16-GLF cells; B16-GLF, day 14): inhibited lung metastasis by day 14; mouse survival (B16-GLF cells; B16): prolonged mouse survival; numbers of CD8+ T cells in TILs (4T1 cells; 1V270-treated tumor-exposed vs 1V270-treated no-tumor exposed mice): Three-fold higher; growth of secondarily challenged tumor (4T1 cells; i.p. 1V270-treated and tumor-exposed mice vs naive or no-tumor exposed mice): significantly impaired; growth of secondarily challenged tumor (4T1 cells; i.p. 1V270-treated no-tumor exposed mice vs naive mice): no difference in the tumor growth; re-challenged tumor growth (4T1 cells; intranasal 1V270, tumor-exposed mice): significantly inhibited; number of CD8+ T cells in TILs (4T1 cells; [2]): A higher number; number of PD-1+CD8+ T cells in TILs (4T1 cells; [2]): A higher number; CD8+ T cells in TILs positive for PD-1 (4T1 cells; secondarily challenged tumor): more than 80%; BUB overlap index between TILs and splenocytes (CD8+ T cells; 1V270-treated tumor-exposed vs non-tumor exposed mice): significantly higher BUB indices; number of shared clones in TILs (CD8+ T cells; 1V270 treated tumor-exposed group vs no-tumor exposed group): eight-fold higher; TCRα clonotypes shared by 3 or more individuals (CD8+ T cells; non-tumor group): 5; clonality of CD8+ T cells (CD8+ T cells; secondarily challenged tumors): increased clonality of CD8^+ T cells; TCRα clonotypes shared by 3 or more individuals (CD8+ T cells; tumor-exposed group): 31; TCRβ clonotypes shared by 3 or more individuals (CD8+ T cells; tumor-exposed group): 11; frequency of shared clones (CD8+ T cells; tumor-exposed vs non-tumor exposed mice): significantly higher in tumor-exposed mice than in non-tumor exposed mice
